Data reported in ChEMBL document CHEMBL3603835, “Discovery of dihydroisoquinolinone derivatives as novel inhibitors of the p53-MDM2 interaction with a distinct binding mode” (Bioorg Med Chem Lett, 2015).

Assays:
[1] = Antiproliferative activity against p53 deficient human Saos2 cells; details: SAOS-2
SJSA-1 = test: Antiproliferative activity against p53 positive human SJSA1 cells
[2] = target: Tumour suppressor p53/oncoprotein Mdm2 (Homo sapiens, UniProt Q00987); test: Inhibition of p53-MDM2 interaction (unknown origin) by TR-FRET assay; assay type: protein assay
Sequence of Tumour suppressor p53/oncoprotein Mdm2 (P04637 whole entry): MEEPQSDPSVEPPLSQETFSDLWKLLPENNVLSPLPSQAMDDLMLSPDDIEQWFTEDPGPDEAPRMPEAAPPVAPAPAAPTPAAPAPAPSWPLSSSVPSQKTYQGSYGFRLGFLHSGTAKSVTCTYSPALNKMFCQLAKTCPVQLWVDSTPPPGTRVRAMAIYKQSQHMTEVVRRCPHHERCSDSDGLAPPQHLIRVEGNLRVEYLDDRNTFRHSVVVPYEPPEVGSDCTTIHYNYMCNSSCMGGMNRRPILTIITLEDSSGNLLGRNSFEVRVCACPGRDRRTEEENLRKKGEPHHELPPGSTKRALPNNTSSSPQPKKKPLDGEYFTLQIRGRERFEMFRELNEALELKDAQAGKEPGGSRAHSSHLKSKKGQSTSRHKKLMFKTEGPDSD
Sequence of Tumour suppressor p53/oncoprotein Mdm2 (Q00987 whole entry): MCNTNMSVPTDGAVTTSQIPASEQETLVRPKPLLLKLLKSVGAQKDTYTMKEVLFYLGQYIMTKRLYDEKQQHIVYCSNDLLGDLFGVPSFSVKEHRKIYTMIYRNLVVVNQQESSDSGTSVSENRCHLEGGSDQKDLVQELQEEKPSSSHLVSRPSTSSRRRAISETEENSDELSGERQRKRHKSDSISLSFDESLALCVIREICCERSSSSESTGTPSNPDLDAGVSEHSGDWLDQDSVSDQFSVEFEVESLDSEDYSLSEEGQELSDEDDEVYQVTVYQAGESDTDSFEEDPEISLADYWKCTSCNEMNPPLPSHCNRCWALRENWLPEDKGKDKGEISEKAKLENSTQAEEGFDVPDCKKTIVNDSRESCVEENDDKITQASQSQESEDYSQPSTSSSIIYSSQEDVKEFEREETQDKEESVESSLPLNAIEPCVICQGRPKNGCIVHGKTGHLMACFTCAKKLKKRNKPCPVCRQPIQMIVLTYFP

SMILES | IC50 (SJSA-1) [µM] | IC50 [2] [nM] | IC50 [1] [µM]
CC[C@@H](C)Oc1cc2c(cc1OC)CC(=O)N(c1ccc(N(C)Cc3cccc(F)c3)cc1)C2c1ccc(Cl)cc1 (some centres not stated) |  | 170 | 
CCOc1cc2c(cc1OCC)C(c1ccc(Cl)cc1)N(c1cccc(Cl)c1)C(=O)C2 (racemic) |  | 1400 | 
CCOc1cc2c(cc1OCC)C(c1ccc(Cl)cc1)N(c1ccc(OC)cc1)C(=O)C2 (racemic) | 16.6 | 540 | 19.6
CCOc1cc2c(cc1OCC)C(c1ccc(Cl)cc1)N(c1ccc(Cl)cc1)C(=O)C2 (racemic) |  | 1000 | 

More lines, main results first:

IC50 (SJSA-1) [µM] | IC50 [2] [nM] | SMILES | IC50 [1] [µM]
1.2 |  | CC[C@@H](C)Oc1cc2c(cc1OC)CC(=O)N(c1ccc(N(C)Cc3ccncc3)cc1)[C@H]2c1ccc(Cl)cc1 | 12
29.6 |  | CC[C@@H](C)Oc1cc2c(cc1OC)CC(=O)N(c1ccc(N(C)Cc3ccncc3)cc1)[C@@H]2c1ccc(Cl)cc1 | > 30
 | 120 | CC[C@@H](C)Oc1cc2c(cc1OC)CC(=O)N(c1ccc(N(C)Cc3ccc(F)cc3)cc1)C2c1ccc(Cl)cc1 (some centres not stated) | 
 | 15 | CC[C@@H](C)Oc1cc2c(cc1OC)CC(=O)N(c1ccc(N(C)Cc3cccnc3)cc1)C2c1ccc(Cl)cc1 (some centres not stated) | 
